Measurements reported in the supplement of paper PMC11208160.

Experiment: recombinant UMI read abundance after kanamycin selection (control-corrected) (log10(CPM+1)); higher = more efficient recombination; extreme values may be limits of the assay; sequences stand for … in AGTGCAGAGAAAATCGGCCAGTTTTCTCTGCCTGCAGTCCGCATGCCGTGGGACCCCTTGGGTTCTAACCTGTTGCCTAGATTTATGCAGCGGACTGCCTTTCTCCCAAAGTGATAAACCGG…AGGTTGGTTTCACT; site = the 11-nt donor
Procedure, shortened: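 In a pooled Escherichia coli screen for the IS621 bridge recombinase, donor and donor-binding-loop pairs were each placed with a 12-nt UMI on a plasmid bearing a promoterless kanamycin gene. This library was co-electroporated with a target plasmid encoding a fixed target and T7-inducible recombinase, and cells were plated either on IPTG (0.07 mM) plus kanamycin or without selection, in two replicates each. Recombinant UMIs were PCR-amplified across the donor–target junction and sequenced, and counts were converted to CPM, averaged over replicates, scaled by control-derived factors and reported as log10(CPM+1).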
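Note: IS621 bridge recombinase in Escherichia coli cells against a fixed T5 target plasmid.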

Sequence | recombinant UMI read abundance (log10)
CTCAACACATGGACCGGTTTTCCCGGTAATCCGTATTTGCT (site CTCGACACTAG) | 0.368
CTCAACACATGGACCGGTTTTCCCGGTAATCCGTATTTGCT (site CTCTACACTAG) | 1.23
CTCAAGCCATGGACCGGTTTTCCCGGTAATCCGTATTTGAG (site CTCAAGCCTCT) | 0
CTCAGAACATGGACCGGTTTTCCCGGTAATCCGTATTTGCC (site CTCAGAACTGG) | 1.47
CTCAGACCATGGACCGGTTTTCCCGGTAATCCGTATTTGCG (site CTCAGACCTCG) | 0
CTCAGGACATGGACCGGTTTTCCCGGTAATCCGTATTTGAG (site CTCAGGACTCT) | 0
CTCCACACATGGACCGGTTTTCCCGGTAATCCGTATTTGCT (site CTCAACACTAG) | 0
CTCCACACATGGACCGGTTTTCCCGGTAATCCGTATTTGCT (site CTCCACACTAG) | 2.08
CTCCACACATGGACCGGTTTTCCCGGTAATCCGTATTTGCT (site CTCGACACTAG) | 0
CTCCACACATGGACCGGTTTTCCCGGTAATCCGTATTTGCT (site CTCTACACTAG) | 1.54
CTCCACGCATGGACCGGTTTTCCCGGTAATCCGTATTTGTT (site CTCCACGCTAA) | 1.57
CTCCCGACATGGACCGGTTTTCCCGGTAATCCGTATTTGGA (site CTCCCGACTTC) | 0.231
CTCCCTACATGGACCGGTTTTCCCGGTAATCCGTATTTGTG (site CTCCCTACTCA) | 0.525
CTCCCTACATGGACCGGTTTTCCCGGTAATCCGTATTTGTG (site CTCCCTACTCC) | 0.617
CTCCCTACATGGACCGGTTTTCCCGGTAATCCGTATTTGTG (site CTCCCTACTCG) | 0.143
CTCCCTACATGGACCGGTTTTCCCGGTAATCCGTATTTGTG (site CTCCCTACTCT) | 0.00616
CTCCGTACATGGACCGGTTTTCCCGGTAATCCGTATTTGCT (site CACCGTACTAG) | 1.41
CTCCGTACATGGACCGGTTTTCCCGGTAATCCGTATTTGCT (site CCCCGTACTAG) | 1.28
CTCCGTACATGGACCGGTTTTCCCGGTAATCCGTATTTGCT (site CGCCGTACTAG) | 0.00286
CTCCGTACATGGACCGGTTTTCCCGGTAATCCGTATTTGCT (site CTCCGTACTAG) | 1.45
CTCCTGTCATGGACCGGTTTTCCCGGTAATCCGTATTTGAC (site CTCCTGTCTGT) | 0
CTCGCGGCATGGACCGGTTTTCCCGGTAATCCGTATTTGCC (site CTCGCGGCTGG) | 0
CTCGCTACATGGACCGGTTTTCCCGGTAATCCGTATTTGCA (site CTCGCTACTTG) | 2.41
CTCGCTCCATGGACCGGTTTTCCCGGTAATCCGTATTTGAG (site CTCGCTCCTCT) | 0.0649
CTCGTAACATGGACCGGTTTTCCCGGTAATCCGTATTTGAC (site CTAGTATCTGT) | 0.0113

Sequence | recombinant UMI read abundance (log10)
CTCGTAACATGGACCGGTTTTCCCGGTAATCCGTATTTGAC (site CTCGTAACTGT) | 2.56
CTCGTATCATGGACCGGTTTTCCCGGTAATCCGTATTTGAC (site CTAGTATCTGT) | 0.00452
CTCGTATCATGGACCGGTTTTCCCGGTAATCCGTATTTGAC (site CTCGTATCTGT) | 2.6
CTCGTATCATGGACCGGTTTTCCCGGTAATCCGTATTTGAC (site CTGGTATCTGT) | 0
CTCGTATCATGGACCGGTTTTCCCGGTAATCCGTATTTGAC (site CTTGTATCTGT) | 0
CTCTAAACATGGACCGGTTTTCCCGGTAATCCGTATTTGCT (site CTCTAAACTAG) | 2.06
CTCTAAACATGGACCGGTTTTCCCGGTAATCCGTATTTGCT (site CTCTACACTAG) | 0.676
CTCTAAACATGGACCGGTTTTCCCGGTAATCCGTATTTGCT (site CTCTAGACTAG) | 0.36
CTCTAAACATGGACCGGTTTTCCCGGTAATCCGTATTTGCT (site CTCTATACTAG) | 0
CTCTATACATGGACCGGTTTTCCCGGTAATCCGTATTTGCT (site CTCTAAACTAG) | 0
CTCTATACATGGACCGGTTTTCCCGGTAATCCGTATTTGCT (site CTCTACACTAG) | 0.592
CTCTATACATGGACCGGTTTTCCCGGTAATCCGTATTTGCT (site CTCTAGACTAG) | 0
CTCTATACATGGACCGGTTTTCCCGGTAATCCGTATTTGCT (site CTCTATACTAG) | 2.08
CTCTCTACATGGACCGGTTTTCCCGGTAATCCGTATTTGAG (site CTCACTACTCT) | 0.0192
CTCTCTACATGGACCGGTTTTCCCGGTAATCCGTATTTGAG (site CTCCCTACTCT) | 0.00919
CTCTCTACATGGACCGGTTTTCCCGGTAATCCGTATTTGAG (site CTCGCTACTCT) | 0.00461
CTCTCTACATGGACCGGTTTTCCCGGTAATCCGTATTTGAG (site CTCTCTACTCT) | 0.0107
CTCTGTTCATGGACCGGTTTTCCCGGTAATCCGTATTTGCC (site CTCTGTTCTGG) | 1.45
CTCTTCACATGGACCGGTTTTCCCGGTAATCCGTATTTGGC (site CTCTTCACTGC) | 2.73
CTGAAAACATGGACCGGTTTTCCCGGTAATCCGTATTTGCA (site CTGAAAACTTG) | 1.48
CTGAAAACATGGACCGGTTTTCCCGGTAATCCGTATTTGCA (site CTGCAAACTTG) | 0
CTGAAAACATGGACCGGTTTTCCCGGTAATCCGTATTTGCA (site CTGGAAACTTG) | 0
CTGAAAACATGGACCGGTTTTCCCGGTAATCCGTATTTGCA (site CTGTAAACTTG) | 0
CTGAATCCATGGACCGGTTTTCCCGGTAATCCGTATTTGTT (site CAGAATCCTAA) | 0.0107
CTGAATCCATGGACCGGTTTTCCCGGTAATCCGTATTTGTT (site CCGAATCCTAA) | 0

Sequence | recombinant UMI read abundance (log10)
CTGAATCCATGGACCGGTTTTCCCGGTAATCCGTATTTGTT (site CGGAATCCTAA) | 0
CTGAATCCATGGACCGGTTTTCCCGGTAATCCGTATTTGTT (site CTGAATCCTAA) | 1.5
CTGAATGCATGGACCGGTTTTCCCGGTAATCCGTATTTGTT (site CGGAATCCTAA) | 0.00219
CTGAATGCATGGACCGGTTTTCCCGGTAATCCGTATTTGTT (site CTGAATGCTAA) | 1.94
CTGCATACATGGACCGGTTTTCCCGGTAATCCGTATTTGTA (site CTGCATACTTA) | 1.59
CTGCCGACATGGACCGGTTTTCCCGGTAATCCGTATTTGCG (site CTGCCGACTCG) | 1.83
CTGCTAACATGGACCGGTTTTCCCGGTAATCCGTATTTGGA (site CTACTAACTTC) | 1.16
CTGCTAACATGGACCGGTTTTCCCGGTAATCCGTATTTGGA (site CTCCTAACTTC) | 0.394
CTGCTAACATGGACCGGTTTTCCCGGTAATCCGTATTTGGA (site CTGCTAACTTC) | 1.62
CTGCTAACATGGACCGGTTTTCCCGGTAATCCGTATTTGGA (site CTTCTAACTTC) | 0.563
CTGCTCACATGGACCGGTTTTCCCGGTAATCCGTATTTGCC (site CTGCTCACTGG) | 2.59
CTGGAGTCATGGACCGGTTTTCCCGGTAATCCGTATTTGCC (site CAGGAGTCTGG) | 2.88
CTGGAGTCATGGACCGGTTTTCCCGGTAATCCGTATTTGCC (site CCGGAGTCTGG) | 1.26
CTGGAGTCATGGACCGGTTTTCCCGGTAATCCGTATTTGCC (site CGGGAGTCTGG) | 0
CTGGAGTCATGGACCGGTTTTCCCGGTAATCCGTATTTGCC (site CTGGAGTCTGG) | 2.84
CTGGCATCATGGACCGGTTTTCCCGGTAATCCGTATTTGAC (site CTAGTATCTGT) | 0
CTGGCATCATGGACCGGTTTTCCCGGTAATCCGTATTTGAC (site CTGGCATCTGT) | 1.53
CTGGCTCCATGGACCGGTTTTCCCGGTAATCCGTATTTGGC (site CTGGCTCCTGC) | 0.763
CTGGCTGCATGGACCGGTTTTCCCGGTAATCCGTATTTGGT (site CTGGCTGCTAC) | 1.7
CTGGGCACATGGACCGGTTTTCCCGGTAATCCGTATTTGAG (site CTGGGCACTCT) | 0.567
CTGGTAGCATGGACCGGTTTTCCCGGTAATCCGTATTTGAC (site CTAGTATCTGT) | 1.68
CTGGTAGCATGGACCGGTTTTCCCGGTAATCCGTATTTGAC (site CTGGTAGCTGT) | 2.85
CTGGTGGCATGGACCGGTTTTCCCGGTAATCCGTATTTGTT (site CTGGTGGCTAA) | 0.723
CTGGTTTCATGGACCGGTTTTCCCGGTAATCCGTATTTGAC (site CTAGTATCTGT) | 0.542
CTGGTTTCATGGACCGGTTTTCCCGGTAATCCGTATTTGAC (site CTGGTTTCTGT) | 1.87
